Measurements taken from PMC7233170 (Bioorganic chemistry, 2020).
Where two headings read alike, the source gives them in different places.

How the values were obtained:
[1] = target: T1, sEH (Homo sapiens, UniProt P34913); assay: sEH inhibitory activity; conditions: for Inhibition of compounds against sEH, 50 μM (%): compound at 50 μM
T1 sequence (P34913 1-555): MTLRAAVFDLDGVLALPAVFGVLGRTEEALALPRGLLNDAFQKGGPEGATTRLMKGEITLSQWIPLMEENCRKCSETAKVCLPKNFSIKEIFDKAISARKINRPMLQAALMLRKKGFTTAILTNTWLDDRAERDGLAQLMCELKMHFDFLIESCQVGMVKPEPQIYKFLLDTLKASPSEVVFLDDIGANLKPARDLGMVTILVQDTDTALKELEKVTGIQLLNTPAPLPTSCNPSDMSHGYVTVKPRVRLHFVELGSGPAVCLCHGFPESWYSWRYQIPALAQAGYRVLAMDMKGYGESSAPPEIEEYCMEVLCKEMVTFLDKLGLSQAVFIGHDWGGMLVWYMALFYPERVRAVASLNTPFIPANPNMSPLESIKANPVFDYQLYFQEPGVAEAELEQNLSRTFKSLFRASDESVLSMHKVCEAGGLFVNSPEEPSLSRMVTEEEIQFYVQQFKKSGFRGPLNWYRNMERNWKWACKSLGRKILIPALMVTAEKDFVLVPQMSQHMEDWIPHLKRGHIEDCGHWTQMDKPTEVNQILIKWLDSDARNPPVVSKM

[2] = target: T1, sEH; assay: Inhibitory kinetic analysis
[3] = read-out: Inhibition of compounds against sEH, IC50, PHOME 10 μM, 20 min, 37 °C, pH 7.4
[4] = PHOME 10 μM, 20 min, 37 °C, pH 7.4

“16-oxo-11-anhydro alisol A 23,24-acetonide [Compound 11]” showed an IC50 [1, 3] of 36.3 ± 4 µM.
“25-ethoxy-16-oxo-11-anhydro alisol A [Compound 18]” gave an IC50 [1, 3] of 31.5 ± 1.4 µM.
For “25-methoxy alisol F 23-acetate [Compound 20]”, the “Inhibition of compounds against sEH, 50 μM (%)” value (“Inhibition of compounds … (%)” below) [1, 4] was 17.63 ± 0.56% and the IC50 [1, 3] was > 50 µM.
In the case of `CC(C)[C@@H](O)C[C@@H](C)C1=C2C[C@H](O)[C@H]3[C@@]4(C)CCC(=O)C(C)(C)[C@@H]4CC[C@]3(C)[C@@]2(C)CC1` [Compound 1, Alismanin B], the “Inhibition of compounds … (%)” value [1, 4] is reported as 75.31 ± 2.42% and the IC50 [1, 3] is reported as 7.15 ± 1.09 µM.
In the case of `C[C@H](C[C@H](O)[C@@H](O)C(C)(C)O)C1=C2C[C@H](O)[C@H]3[C@@]4(C)CCC(=O)C(C)(C)[C@@H]4CC[C@]3(C)[C@@]2(C)CC1` [Compound 2, alisol A], the IC50 [1] is reported as > 50 µM and the inhibition at 50 µM ([1]; pH 7.4, read-out: Inhibition of compounds against sEH, 50 μM (%)) is reported as 27.3 ± 2.81%.
`COC(C[C@@H](C)C1=C2C[C@H](O)[C@H]3[C@@]4(C)CCC(=O)C(C)(C)[C@@H]4CC[C@]3(C)[C@@]2(C)CC1)OC` [Compound 3, alismanin D] was tested, and the “Inhibition of compounds … (%)” value [1, 4] was 78.54 ± 1.86% and the IC50 [1, 3] was 14.8 ± 1.1 µM.
With `C=C(C)[C@@H](O)[C@@H](O)C[C@@H](C)C1=C2CC[C@H]3[C@@]4(C)CCC(=O)C(C)(C)[C@@H]4CC[C@]3(C)[C@@]2(C)CC1` [Compound 4, 11-deoxy-25-anhydro alisol E] the “Inhibition of compounds … (%)” value [1, 4] was 71.21 ± 1.56%, the IC50 [1, 3] was 5.94 ± 0.54 µM and the Inhibition type ([2]; from Lineweaver-Burk plots) was “mixed-type competitive”. The Ki ([2]; inhibition constant from slope plots) was 12.6 µM.
In the case of `C=C(C)[C@@H](O)[C@@H]1C[C@@H](C)[C@@]2(CC[C@@]3(C)C2=C[C@H](OC)[C@H]2[C@@]4(C)CCC(=O)C(C)(C)[C@@H]4CC[C@@]23C)O1` [Compound 6, alismanin F], the “Inhibition of compounds … (%)” value [1, 4] is reported as 71.6 ± 2.12% and the IC50 [1, 3] is reported as 14.6 ± 1.1 µM.
In the case of `CC(C)(O)C1O[C@](C)(C2=C3C[C@H](O)[C@H]4[C@@]5(C)CCC(=O)C(C)(C)[C@@H]5CC[C@]4(C)[C@@]3(C)CC2=O)CC1O` (stereo partly shown) [Compound 7, alismanol O], the “Inhibition of compounds … (%)” value [1, 4] is reported as 24.45 ± 1.03% and the IC50 [1, 3] is reported as > 50 µM.
With `CC(CC(O)C(O)C(C)(C)O)C1=C2C(O)C(O)C3C4(C)CCC(=O)C(C)(C)C4CC(O)C3(C)C2(C)CC1` (stereo not drawn) [Compound 8, 7α,12α-dihydroxyalisol A] the “Inhibition of compounds … (%)” value [1, 4] was 44.42 ± 1.43% and the IC50 [1, 3] was > 50 µM.
With `CC(CC(O)C(=O)C(C)(C)O)C1=C2CC(O)C3C4(C)CCC(=O)C(C)(C)C4CC(O)C3(C)C2(C)CC1` (stereo not drawn) [Compound 10, 7α-hydroxy-24-oxo alisol A] the “Inhibition of compounds … (%)” value [1, 4] was 18.64 ± 0.45% and the IC50 [1, 3] was > 50 µM.
For `C=C(C)[C@H](O)[C@@H](O)C[C@@H](C)C1=C2C=C[C@H]3[C@@]4(C)CCC(=O)C(C)(C)[C@@H]4CC[C@]3(C)[C@@]2(C)CC1=O` [Compound 12, alismanol B], the “Inhibition of compounds … (%)” value [1, 4] was 44.97 ± 0.95% and the IC50 [1, 3] was > 50 µM.
`C[C@@H]1C[C@@H]([C@@H](O)C(C)(C)O)O[C@H]2C[C@@]3(C)C(=C12)CC[C@H]1[C@@]2(C)CCC(=O)C(C)(C)[C@@H]2CC[C@@]13C` [Compound 13, 11-deoxy alisol F] gave an IC50 [1, 3] of 22.1 ± 1.4 µM.
`C[C@@H]1C[C@@H]([C@@H](O)C(C)(C)O)O[C@H]2C[C@@]3(C)C(=C12)C[C@H](O)[C@H]1[C@@]2(C)CCC(=O)C(C)(C)[C@@H]2CC[C@@]13C` [Compound 14, alisol F] was tested, and the “Inhibition of compounds … (%)” value [1, 4] was 18.30 ± 0.35% and the IC50 [1, 3] was > 50 µM.
For `CCOC(C)(C)[C@H](O)[C@@H](O)C[C@@H](C)C1=C2C[C@H](O)[C@H]3[C@@]4(C)CCC(=O)C(C)(C)[C@@H]4CC[C@]3(C)[C@@]2(C)CC1` [Compound 15, 25-O-ethyl alisol A], the “Inhibition of compounds … (%)” value [1, 4] was 78.66 ± 2.19% and the IC50 [1, 3] was 9.57 ± 0.88 µM.
`C=C(C)[C@H](O)[C@@H]1C[C@@H](C)C2=C3C[C@H](O)[C@H]4[C@@]5(C)CCC(=O)C(C)(C)[C@@H]5CC[C@]4(C)[C@@]3(C)C[C@@H]2O1` [Compound 16, 25-anhydro alisol F] was tested, and the IC50 [1, 3] was 21.2 ± 0.5 µM.
For `COC(=O)C[C@@H](C)C1=C2[C@H](O)C[C@H]3[C@@]4(C)CCC(=O)C(C)(C)[C@@H]4CC[C@]3(C)[C@@]2(C)C[C@@H]1OC` [Compound 17, alismanin E], the “Inhibition of compounds … (%)” value [1, 4] was 49.44 ± 1.15% and the IC50 [1, 3] was > 50 µM.
In the case of `CC1(C)O[C@@H]1[C@@H](O)C[C@](C)(O)C1=C2C[C@H](O)[C@H]3[C@@]4(C)CCC(=O)C(C)(C)[C@@H]4CC[C@]3(C)[C@@]2(C)CC1=O` [Compound 19, 20-hydroxy alisol C], the IC50 [1, 3] is reported as 22.2 ± 1 µM.
In the case of `CC(=O)O[C@H]([C@@H]1C[C@@H](C)C2=C3[C@H](O)C[C@H]4[C@@]5(C)CCC(=O)C(C)(C)[C@@H]5CC[C@]4(C)[C@@]3(C)C[C@@H]2O1)C(C)(C)O` [Compound 21, 11-deoxy-12β-hydroxy alisol F 24-acetate], the “Inhibition of compounds … (%)” value [1, 4] is reported as 39.33 ± 0.92% and the IC50 [1, 3] is reported as > 50 µM.
With `C[C@@H]1C[C@@H]([C@@H](O)C(C)(C)O)O[C@H]2C[C@@]3(C)C(=C12)[C@H](O)C[C@H]1[C@@]2(C)CCC(=O)C(C)(C)[C@@H]2CC[C@@]13C` [Compound 22, 11-deoxy-12β-hydroxy alisol F] the “Inhibition of compounds … (%)” value [1, 4] was 17.96 ± 0.69% and the IC50 [1, 3] was > 50 µM.
In the case of `COC1CC2(C)C(=C1C(C)CC(O)C(OC(C)=O)C(C)(C)O)C(O)CC1C3(C)CCC(=O)C(C)(C)C3CCC12C` (stereo not drawn) [Compound 23, 1-deoxy-12β-hydroxy-16β-methoxy alisol A 24-acetate], the “Inhibition of compounds … (%)” value [1, 4] is reported as 16.27 ± 0.72% and the IC50 [1, 3] is reported as > 50 µM.
Work on `C=C(C)[C@@H]1OC(C)(C)O[C@H]1C[C@@H](C)C1=C2C[C@H](O)[C@H]3[C@@]4(C)CCC(=O)C(C)(C)[C@@H]4CC[C@]3(C)[C@@]2(C)CC1` [Compound 24, alisol G (23, 24)-diol acetonide] yielded an IC50 [1, 3] of 14.6 ± 1.6 µM.
`CC(=O)O[C@H]([C@@H](O)C[C@@H](C)C1=C2C[C@H](O)[C@H]3[C@@]4(C)CCC(=O)C(C)(C)[C@@H]4CC[C@]3(C)[C@@]2(C)CC1)C(C)(C)O` [Compound 25, alisol A 24-acetate] was tested, and the IC50 [1, 3] was 21.4 ± 1.7 µM.
alisol B 23-acetate [Compound 9] was tested, and the “Inhibition of compounds … (%)” value [1, 4] was 37.63 ± 0.86% and the IC50 [1, 3] was > 50 µM.
